In PubChem BioAssay AID1963448 (Molecular Pharmacology Branch, DTP, NCI, 2024):

Tested on: 616215-338-R-J1-PDC complex spheroid growth, % test/control
Assay: Anticancer human tumor 616215-338-R-J1-PDC patient-derived colon adenocarcinoma cell line growth inhibition [Asc]
Details: for IC50: curve of first compound; for viability, T/C: stronger effect = lower value
In short: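 Complex solid-tumor spheroids incorporating human endothelial and mesenchymal stem cells received single agents or combinations over half-log dilution ranges anchored to clinical Cmax.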
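Note: spheroids exposed to agents for seven days before readout.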
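Throughout, for viability, T/C: 100% = DMSO vehicle control viability.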

SMILES: Cc1nc(N2CCC3(CC2)COC(C)C3N)c(CO)nc1Sc1ccnc(N)c1Cl (stereo not given) + Cc1c(S(C)(=O)=O)c(-c2cc(F)cc(N3CCN(c4ccc(NS(=O)(=O)c5ccc(NC(CCN6CCC(C(=O)OCCCP(=O)(O)O)CC6)CSc6ccccc6)c(S(=O)(=O)C(F)(F)F)c5)cc4)CC3)c2)c(-c2ccc(Cl)cc2)n1C(C)C
- IC50 (second compound 0.1 µM): > 3 µM
- IC50 (second compound 0.316 µM): > 3 µM
- IC50 (second compound 1 µM): > 3 µM
- IC50 (second compound 3.16 µM): < 0.00949 µM
- IC50 (second compound 10 µM): < 0.00949 µM
- viability, T/C (second compound 0.1 µM, first compound 0.00949 µM): 97.8%
- viability, T/C (second compound 0.1 µM, first compound 0.03 µM): 102%
- viability, T/C (second compound 0.1 µM, first compound 0.0949 µM): 100%
- viability, T/C (second compound 0.1 µM, first compound 0.3 µM): 95.9%
- viability, T/C (second compound 0.1 µM, first compound 0.949 µM): 84.5%
- viability, T/C (second compound 0.1 µM, first compound 3 µM): 76.7%
- viability, T/C (second compound 0.316 µM, first compound 0.00949 µM): 96.7%
- viability, T/C (second compound 0.316 µM, first compound 0.03 µM): 92.8%
- viability, T/C (second compound 0.316 µM, first compound 0.0949 µM): 94.5%
- viability, T/C (second compound 0.316 µM, first compound 0.3 µM): 94.9%
- viability, T/C (second compound 0.316 µM, first compound 0.949 µM): 76.6%
- viability, T/C (second compound 0.316 µM, first compound 3 µM): 71.3%
- viability, T/C (second compound 1 µM, first compound 0.00949 µM): 68%
- viability, T/C (second compound 1 µM, first compound 0.03 µM): 67.8%
- viability, T/C (second compound 1 µM, first compound 0.0949 µM): 68.9%
- viability, T/C (second compound 1 µM, first compound 0.3 µM): 66.7%
- viability, T/C (second compound 1 µM, first compound 0.949 µM): 61.7%
- viability, T/C (second compound 1 µM, first compound 3 µM): 55.6%
- viability, T/C (second compound 3.16 µM, first compound 0.00949 µM): 38.2%
- viability, T/C (second compound 3.16 µM, first compound 0.03 µM): 38.4%
- viability, T/C (second compound 3.16 µM, first compound 0.0949 µM): 34.2%
- viability, T/C (second compound 3.16 µM, first compound 0.3 µM): 36.8%
- viability, T/C (second compound 3.16 µM, first compound 0.949 µM): 25.9%
- viability, T/C (second compound 3.16 µM, first compound 3 µM): 21.9%
- viability, T/C (second compound 10 µM, first compound 0.00949 µM): 29.4%
- viability, T/C (second compound 10 µM, first compound 0.03 µM): 25.6%
- viability, T/C (second compound 10 µM, first compound 0.0949 µM): 30.2%
- viability, T/C (second compound 10 µM, first compound 0.3 µM): 21.1%
- viability, T/C (second compound 10 µM, first compound 0.949 µM): 9.17%
- viability, T/C (second compound 10 µM, first compound 3 µM): 6.63%
